# Assay: Particle size (Z-average) of the formulation mixed with water 1:50
# Assay type: physicochemical
# Method: The formulation according to present invention is prepared when the non-ionic surfactant mixture is thoroughly mixed with the solution of the active ingredient in the water-miscible organic solvent/co-solvent.
# The present invention will now be illustrated by the following examples. It is understood, however, that such examples are provided for illustration only, and the invention is not intended to be limited by the examples. The formulation based on the system employed in the examples can be formed by any suitable method known in the art. In the examples the formulation was mixed with water at a ratio of 1:50 formulation: water to generate the system and measure the particle size formed in water. The particle size was measured by the method described in Pharmacopea Forum—2001 vol 27 (4) page 2724.
SMILES,"increase of particle Z-average (10% tioconazole formulation omitting DEGEE, compared with complete formulation containing DEGEE, PEG Oleate, polyethoxylated castor oil) [%]","particle size of emulsion (10% tioconazole formulation omitting polyethoxylated castor oil, diluted 1:50 in water) [nm]","Z-average (0.5% tacrolimus in ethanol with DEGEE / PEG Oleate / polyethoxylated castor oil as per Table 3, diluted 1:50 in water) [nm]"
Clc1ccc(C(Cn2ccnc2)OCc2ccsc2Cl)c(Cl)c1 (stereo not drawn) [Tioconazole],10,450,
C=CC[C@@H]1/C=C(\C)C[C@H](C)C[C@H](OC)[C@H]2O[C@@](O)(C(=O)C(=O)N3CCCC[C@H]3C(=O)O[C@H](/C(C)=C/[C@@H]3CC[C@@H](O)[C@H](OC)C3)[C@H](C)[C@@H](O)CC1=O)[C@H](C)C[C@@H]2OC [tacrolimus],,,32
